Each structure is given as a SMILES string.

The nature of data set [1]: Real time in situ AFM step velocity measurements of L-cystine crystal growth with additive. To be noted: for Vo/V (inverse of V/Vo): higher = more effective inhibition; for V/Vo (normalized velocity of step advancement): supersaturated L-cystine solution, lower = more effective inhibition. How it is done: A Digital Instruments (Santa Barbara, Calif.) Nanoscope IIIa Multimode system is used for topographical and lattice imaging. All measurements are performed in contact mode using Veeco NP_B Si3N4 cantilever tips with a spring constant of 0.12 N/m (triangular, 196 μm length, 41 μm width) on a glass cantilever holder, and a liquid cell is created for in situ step velocity measurements. All L-cystine crystals for AFM measurements are prepared by the method described herein. Crystals are transferred onto an AFM specimen disk coated with partially cured (1 hr) UV-curable optical cement (Type SK-9, EMS Acquisition Corp.) by gently pressing the disk against hexagonal platelets or L-cystine needles isolated by filtration (Whatman Nuclepore membrane, 8 μm). The (0001) face of hexagonal platelets is exposed normal to the disk for AFM analysis with growth occurring along equivalent {1010} faces in the lateral directions, while the sides of L-cystine needles are exposed normal to the disc. The partially cured polymer with adhered crystals is completely cured by additional UV radiation (2 hrs) prior to analysis. Measurements of individual step heights for hexagonal L-cystine crystals are acquired in air (contact mode) at a scan rate of 1.00 Hz and 256 samples per line over a 15×15 μm^2 surface area. Integral and proportional gains are set to the highest possible values without obtaining feedback. Four hexagonal crystals (5 areas per crystal) are analyzed for statistical step height distributions, which are calculated from >10^3 individual steps. Lattice-resolved images of crystal surfaces are acquired in water (contact mode) using a scan rate of 112 Hz over a 12×12 nm^2 area.
Real time in situ step velocity measurements of L-cystine growth are assessed along six structurally-equivalent {1010} faces of the hexagonal structure. A liquid cell is created with the glass cantilever tip holder, and working solutions are injected through a 1-mL syringe. Prior to injecting the growth medium (i.e. supersaturated L-cystine solution), crystals are etched with deionized water in the fluid cell for one hour to remove amorphous deposits or impurities that may be present on the surface. Supersaturated solutions (0.5 g/L) are generated by adding L-cystine to deionized water, boiling the solution on a heating mantle for 20 min to completely dissolve the solute, and allowing the solution to cool for 20 min on the heating mantle before transferring the solution (via syringe) to the AFM fluid cell. This method allows the solution to gradually cool to room temperature prior to AFM measurements in an effort to minimize premature nucleation of L-cystine in the growth solution.
The effect of the compound of invention (additives) on crystal growth rates is investigated. Additives are combined with the supersaturated L-cystine following the 20 min cool down period (as discussed above) to avoid denaturing biological additives at higher temperature. A small volume (0.2 mL) of concentrated additive is mixed with 4.8 mL of L-cystine to generate 0.48 g/L L-cystine solutions with additives of varying concentrations. Control measurements without additive are performed in a similar manner, replacing concentrated additive solutions deionized water to maintain a constant L-cystine concentration. Data collection is started immediately after injecting the working solution into the AFM liquid cell. For each measurement, growth is first assessed in the absence of additive, then in the presence of additive on the identical area of the crystal surface to analyze relative changes in step velocity. Measurements are acquired at static conditions without refreshment of growth solution using supersaturated L-cystine solutions […] than the solubility of L-cystine in water, which is reported as 0.4-0.7 mM (pH 7, 25° C.). […] At static conditions, solute is depleted from solution during growth, leading to a slight decrease in the step velocity with increasing time. […]

The conditions of data set [2]: pH 7, 25° C.; cited from earlier work.

Turning to `CC(C)OC(=O)[C@@H](N)CSSC[C@H](N)C(=O)OC(C)C` [Compound 6, L-cystine diisopropyl ester], in data set [1] (additive 0.015 mM), the “Vo/V (inverse of V/Vo)” value was 1.55 and the “V/Vo (normalized velocity of step advancement)” value amounted to 0.64. Turning to `CCOC(=O)[C@@H](N)CSSC[C@H](N)C(=O)OCC` [Compound 4, L-cystine diethyl ester], in data set [1] (additive 0.015 mM), the “Vo/V (inverse of V/Vo)” value was 1.79 and the “V/Vo (normalized velocity of step advancement)” value was found to be 0.56. On to `COC(=O)[C@@H](N)CO` [Compound 19, L-serine methyl ester], for which, in data set [1] (additive 0.03 mM), the “Vo/V (inverse of V/Vo)” value was found to be 0.93 and the “V/Vo (normalized velocity of step advancement)” value turned out to be 1.07. Consider `N[C@@H](CSSC[C@H](N)C(=O)Oc1ccccc1)C(=O)Oc1ccccc1` [Compound 2, L-cystine diphenyl ester], for which, in data set [1] (additive 0.015 mM), the “Vo/V (inverse of V/Vo)” value worked out at 2.44 and the “V/Vo (normalized velocity of step advancement)” value stood at 0.41.

In the case of `CC(C)(C)OC(=O)N[C@@H](CSSC[C@H](NC(=O)OC(C)(C)C)C(=O)O)C(=O)O` [Compound 11, Nα,Nα′-di-Boc-L-cystine, reference compound], in data set [1] (additive 0.09 mM), the “Vo/V (inverse of V/Vo)” value is listed as 1.23 and the “V/Vo (normalized velocity of step advancement)” value worked out at 0.81. With `N[C@@H](CCSSCC[C@H](N)C(=O)O)C(=O)O` [Compound 18, L-Homocystine, reference compound], in data set [1] (additive 0.015 mM), the “Vo/V (inverse of V/Vo)” value is 0.95 and the “V/Vo (normalized velocity of step advancement)” value was 1.05. Regarding `CC(C)(C)OC(=O)[C@@H](N)CSSC[C@H](N)C(=O)OC(C)(C)C` [Compound 8, L-cystine ditert-butyl ester], in data set [1] (additive 0.015 mM), the “Vo/V (inverse of V/Vo)” value was found to be 1.43 and the “V/Vo (normalized velocity of step advancement)” value is given as 0.7. Consider `N[C@@H](CS)C(=O)O` [Compound 17, L-cysteine, reference compound], for which, in data set [1] (additive 0.03 mM), the “Vo/V (inverse of V/Vo)” value is 1 and the “V/Vo (normalized velocity of step advancement)” value was found to be 1. With `N[C@@H](CSSC[C@H](N)C(=O)O)C(=O)O` [L-cystine], in data set [2], the “solubility of L-cystine in water” value is 0.4 to 0.7 mM. As for `COC(=O)[C@@H](N)CS` [Compound 3, L-cysteine methyl ester], in data set [1] (additive 0.03 mM), the “Vo/V (inverse of V/Vo)” value is 2.05 and the “V/Vo (normalized velocity of step advancement)” value came out at 0.49. Turning to `COC(=O)[C@@H](N)CSSC[C@H](N)C(=O)O` [Compound 7, L-cystine methyl ester], in data set [1] (additive 0.015 mM), the “Vo/V (inverse of V/Vo)” value is 1.47 and the “V/Vo (normalized velocity of step advancement)” value is reported as 0.68.

As for `COC(=O)[C@@H](N)CCSSCC[C@H](N)C(=O)OC` [Compound 5, L-homocystine dimethyl ester], in data set [1] (additive 0.015 mM), the “Vo/V (inverse of V/Vo)” value was found to be 1.59 and the “V/Vo (normalized velocity of step advancement)” value amounted to 0.63.

For the compound `N[C@@H](CCCC[C@H](N)C(=O)O)C(=O)O` [Compound 14, L-diaminooctanedioic acid], in data set [1] (additive 0.015 mM), the “Vo/V (inverse of V/Vo)” value is listed as 1.03 and the “V/Vo (normalized velocity of step advancement)” value is 0.97.

Take `COC(=O)[C@@H](N)CCCC[C@H](N)C(=O)OC` [Compound 12, L-dimethyl 2,7-diaminooctanedioate]: in data set [1] (additive 0.015 mM), the “Vo/V (inverse of V/Vo)” value stood at 1.09 and the “V/Vo (normalized velocity of step advancement)” value is recorded as 0.92. Turning to `COC(=O)[C@@H](N)C/C=C/C[C@H](N)C(=O)OC` [Compound 10, L-dimethyl 2,7-diaminooct-4-enedioate], in data set [1] (additive 0.015 mM), the “Vo/V (inverse of V/Vo)” value stood at 1.23 and the “V/Vo (normalized velocity of step advancement)” value is given as 0.81.

In the case of `CC(S)C(=O)NCC(=O)O` (centres unmarked) [Compound 9, N-(2-Mercapto-propionyl)glycine, reference compound], in data set [1] (additive 0.03 mM), the “Vo/V (inverse of V/Vo)” value is reported as 1.35 and the “V/Vo (normalized velocity of step advancement)” value came out at 0.74. For `NCCSSCCN` [Compound 16, cystamine], in data set [1] (additive 0.015 mM), the “Vo/V (inverse of V/Vo)” value worked out at 1 and the “V/Vo (normalized velocity of step advancement)” value is 1. With `COC(=O)[C@@H](N)CSSC[C@H](N)C(=O)OC` [Compound 1, L-cystine dimethyl ester], in data set [1] (additive 0.015 mM), the “Vo/V (inverse of V/Vo)” value stood at 2.62 and the “V/Vo (normalized velocity of step advancement)” value is reported as 0.38.

(Values after patent publication US10759748B2, “Compounds as L-cystine crystallization inhibitors and uses thereof” (NEW YORK UNIVERSITY, priority 2011, dated 2020).)
